The assay has as its system BDF1 mice, P388 leukemia ip, median survival T/C. The assay can be described thus: NCI In Vivo Anticancer Drug Screen. Data for tumor model P388 Leukemia (intraperitoneal) in B6D2F1 (BDF1) mice. To be noted: endpoint: median survival time, higher = longer survival. As for the experimental part:
The antitumor activity of compounds was measured in mice bearing transplantable tumors. Survival or tumor size were measured and the results are expressed as the measurement made in the treated group (T) divided by the measurement made in the vehicle treated control group (C). The tumor model used in this assay is P388 Leukemia (intraperitoneal) in B6D2F1 (BDF1) mice

The mark [1] stands for this setting: dose: 25.0 mg/kg/injection, schedule: Q01DX009 (ip), vehicle: Klucel (hydroxypropylcellulose) (HPC).
Setting [2] is: dose: 50.0 mg/kg/injection, schedule: Q01DX009 (ip), vehicle: Klucel (hydroxypropylcellulose) (HPC).
Setting [3] is: dose: 100.0 mg/kg/injection, schedule: Q01DX009 (ip), vehicle: Klucel (hydroxypropylcellulose) (HPC).
[4] abbreviates: dose: 100.0 mg/kg/injection, schedule: Q04DX003 (ip), vehicle: Klucel (hydroxypropylcellulose) (HPC).
[5] abbreviates: dose: 50.0 mg/kg/injection, schedule: Q04DX003 (ip), vehicle: saline with Tween-80.
[6] abbreviates: dose: 100.0 mg/kg/injection, schedule: Q04DX003 (ip), vehicle: saline with Tween-80.
The mark [7] stands for this setting: dose: 200.0 mg/kg/injection, schedule: Q04DX003 (ip), vehicle: saline with Tween-80.
[8] abbreviates: dose: 200.0 mg/kg/injection, schedule: Q01DX009 (ip), vehicle: Klucel (hydroxypropylcellulose) (HPC).
Where [9] appears, read: dose: 200.0 mg/kg/injection, schedule: Q04DX003 (ip), vehicle: Klucel (hydroxypropylcellulose) (HPC).
Setting [10] is: dose: 400.0 mg/kg/injection, schedule: Q01DX009 (ip), vehicle: Klucel (hydroxypropylcellulose) (HPC).
[11] abbreviates: dose: 400.0 mg/kg/injection, schedule: Q04DX003 (ip), vehicle: Klucel (hydroxypropylcellulose) (HPC).
[12] abbreviates: dose: 100.0 mg/kg/injection, schedule: Q01DX009 (ip), vehicle: saline with Tween-80.
Where [13] appears, read: dose: 200.0 mg/kg/injection, schedule: Q01DX009 (ip), vehicle: saline with Tween-80.
Setting [14] is: dose: 400.0 mg/kg/injection, schedule: Q01DX009 (ip), vehicle: saline with Tween-80.
[15] abbreviates: dose: 50.0 mg/kg/injection, schedule: Q01DX009 (ip), vehicle: saline.
Where [16] appears, read: dose: 50.0 mg/kg/injection, schedule: Q01DX009 (ip), vehicle: saline with Tween-80.
The mark [17] stands for this setting: dose: 25.0 mg/kg/injection, schedule: Q01DX009 (ip), vehicle: saline with Tween-80.

The structures appear in SMILES notation. Where “and” joins values, the source holds several entries; their conditions need not be identical. Equal values may be shown once. Inconclusive results and toxic doses are left out.

As to `C1CCN(CC2CCCCN2)CC1` (stereo unspecified), the T/C is, setting by setting: under setting [1], 100 % of control; (dose: 25.0 mg/kg/injection, schedule: Q04DX003 (ip), vehicle: Klucel (hydroxypropylcellulose) (HPC)) 105 % of control; under setting [2], 100 % of control; (dose: 50.0 mg/kg/injection, schedule: Q04DX003 (ip), vehicle: Klucel (hydroxypropylcellulose) (HPC)) 100 % of control; under setting [3], 90 % of control; under setting [4], 110 % of control.

As to `O=c1oc(-c2ccccc2)nc2cc(Cl)ccc12`, the T/C under setting [5] is 100 % of control and 109 % of control; the T/C under setting [6] is 100 % of control and 109 % of control; the T/C under setting [7] is 104 % of control.

Consider `COc1ccc(/C=C/C(=O)c2ccccc2)cc1OC`, for which the T/C is 117 % of control (dose: 37.5 mg/kg/injection, schedule: Q01DX009 (ip), vehicle: Klucel (hydroxypropylcellulose) (HPC)); 92 % of control (dose: 50.0 mg/kg/injection, schedule: Q01DX009 (ip), vehicle: water); 111 % of control (dose: 75.0 mg/kg/injection, schedule: Q01DX009 (ip), vehicle: Klucel (hydroxypropylcellulose) (HPC)); 115 % of control (dose: 100.0 mg/kg/injection, schedule: Q01DX006 (ip), vehicle: water); 105 % of control under setting [3]; 115 % of control (dose: 100.0 mg/kg/injection, schedule: Q01DX009 (ip), vehicle: water). Besides, the T/C is, setting by setting: under setting [4], 113 % of control; (dose: 100.0 mg/kg/injection, schedule: Q04DX003 (ip), vehicle: water) 86 % of control; (dose: 150.0 mg/kg/injection, schedule: Q01DX009 (ip), vehicle: Klucel (hydroxypropylcellulose) (HPC)) 105 % of control; (dose: 200.0 mg/kg/injection, schedule: Q01DX006 (ip), vehicle: water) 108 % of control; under setting [8], 100 % of control; under setting [9], 90 % of control. Moreover, the T/C (dose: 200.0 mg/kg/injection, schedule: Q04DX003 (ip), vehicle: water) is 100 % of control; the T/C (dose: 300.0 mg/kg/injection, schedule: Q01DX009 (ip), vehicle: Klucel (hydroxypropylcellulose) (HPC)) was 107 % of control and 111 % of control; the T/C (dose: 400.0 mg/kg/injection, schedule: Q01DX006 (ip), vehicle: water) is 150 % of control; the T/C under setting [10] was 109 % of control and 115 % of control; the T/C (dose: 400.0 mg/kg/injection, schedule: Q01DX009 (ip), vehicle: water) is 124 % of control; the T/C under setting [11] was 100 % of control. Besides, the T/C (dose: 400.0 mg/kg/injection, schedule: Q04DX003 (ip), vehicle: water) is 98 % of control; the T/C (dose: 500.0 mg/kg/injection, schedule: Q01DX006 (ip), vehicle: water) is 161 % of control; the T/C (dose: 500.0 mg/kg/injection, schedule: Q01DX009 (ip), vehicle: Klucel (hydroxypropylcellulose) (HPC)) is 100 % of control.

With `CCCC(C#N)(CCCl)c1ccccc1` (stereo unspecified), the T/C is, setting by setting: under setting [12], 100 % of control; under setting [13], 108 % of control; under setting [14], 112 % of control.

For `CC1(c2ccco2)NC(=O)N(Cl)C1=O` (stereo unspecified), the T/C by setting is: under setting [15], 89 % of control; (dose: 100.0 mg/kg/injection, schedule: Q01DX009 (ip), vehicle: saline) 98 % of control; (dose: 200.0 mg/kg/injection, schedule: Q01DX009 (ip), vehicle: saline) 105 % of control.

For `COc1ccc(C(Br)C(Br)C(=O)c2ccc3c(c2)OCO3)cc1OC` (stereo unspecified), the T/C is, setting by setting: (dose: 25.0 mg/kg/injection, schedule: Q04DX003 (ip), vehicle: saline) 104 % of control; (dose: 50.0 mg/kg/injection, schedule: Q04DX003 (ip), vehicle: saline) 90 % of control; (dose: 100.0 mg/kg/injection, schedule: Q04DX003 (ip), vehicle: saline) 113 % of control; (dose: 200.0 mg/kg/injection, schedule: Q04DX003 (ip), vehicle: saline) 97 % of control; (dose: 400.0 mg/kg/injection, schedule: Q04DX003 (ip), vehicle: saline) 90 % of control; (dose: 600.0 mg/kg/injection, schedule: Q04DX003 (ip), vehicle: saline) 119 % of control.

Regarding `CC(Oc1cc(Cl)ccc1Cl)C(=O)O` (stereo unspecified), the T/C was 90 % of control under setting [3]; 100 % of control under setting [4]; 100 % of control under setting [8]; 104 % of control under setting [9]; 113 % of control under setting [10]; 108 % of control under setting [11].

As to `Oc1c(CN2CCOCC2)cc(CN2CCOCC2)cc1CN1CCOCC1`, the T/C is, setting by setting: under setting [12], 91 % of control; under setting [13], 86 % of control; under setting [14], 100 % of control.

Consider `COc1cc(N(CCCl)CCCl)ccc1/C=N\NC(=O)c1cccnc1`, for which the T/C was 98 % of control under setting [1], 97 % of control under setting [2] and 112 % of control under setting [3].

Take `C[C@H]1C=C(O)C(=O)[C@@]2(C)C[C@H]3CCC(=O)O[C@H]3C[C@H]12`: the T/C by setting is: (dose: 2.5 mg/kg/injection, schedule: Q01DX009 (ip), vehicle: saline + alcohol) 105 % of control; (dose: 5.0 mg/kg/injection, schedule: Q01DX009 (ip), vehicle: saline + alcohol) 107 % of control; (dose: 10.0 mg/kg/injection, schedule: Q01DX009 (ip), vehicle: saline + alcohol) 91 % of control; (dose: 20.0 mg/kg/injection, schedule: Q01DX009 (ip), vehicle: saline + alcohol) 100 % of control.

Turning to `C=CCNC(=O)Cn1nnc(-c2ccccc2)n1`, the T/C is, setting by setting: under setting [16], 86 % of control; under setting [12], 101 % of control; under setting [13], 107 % of control.

With `O=C(Nc1cccc(Cl)c1)ON1CCCCC1`, the T/C is, setting by setting: under setting [16], 106 % of control; under setting [12], 97 % of control; under setting [13], 100 % of control.

Take `NN(c1cccc(C(F)(F)F)c1)c1ccccn1`: the T/C was 108 % of control (dose: 12.5 mg/kg/injection, schedule: Q01DX009 (ip), vehicle: saline); 106 % of control (dose: 25.0 mg/kg/injection, schedule: Q01DX009 (ip), vehicle: saline); 115 % of control under setting [15].

`O=C(NCc1cnccn1)c1ccc([N+](=O)[O-])cc1`: the T/C by setting is: under setting [16], 100 % of control; under setting [12], 94 % of control; under setting [13], 100 % of control; under setting [14], 103 % of control.

With `O=c1c(O)c(-c2ccccc2)oc2ccccc12`, the T/C under setting [3] was 95 % of control; the T/C under setting [4] was 91 % of control and 103 % of control; the T/C under setting [8] is 100 % of control; the T/C under setting [9] was 91 % of control and 92 % of control; the T/C under setting [10] is 108 % of control; the T/C under setting [11] is 95 % of control and 96 % of control.

As to `Cc1cccn2c(C)nnc12`, the T/C under setting [17] is 110 % of control, the T/C under setting [16] was 101 % of control and the T/C under setting [12] was 99 % of control.

`Nc1ccc(S(=O)(=O)N/N=C/c2ccccc2Cl)cc1`: the T/C reads like this: (dose: 12.5 mg/kg/injection, schedule: Q01DX009 (ip), vehicle: saline with Tween-80) 96 % of control; under setting [17], 96 % of control; under setting [16], 92 % of control.

As for `Cc1ccnc(NS(=O)(=O)c2ccc(N=Cc3ccc(N(C)C)cc3)cc2)n1`, the T/C reads like this: under setting [16], 90 % of control; under setting [12], 93 % of control; under setting [13], 90 % of control.

Regarding `CN1CCCC1CCNc1nc(C(Cl)(Cl)Cl)nc2ccc(Cl)cc12` (stereo unspecified), the T/C under setting [17] is 100 % of control, the T/C under setting [16] is 100 % of control, the T/C under setting [5] was 104 % of control and the T/C under setting [6] is 104 % of control.

As for `Cc1ccc(Nc2n[nH]c(=S)s2)cc1C`, the T/C is 104 % of control under setting [12], 109 % of control under setting [13] and 109 % of control under setting [14].

Turning to `CSC(N)=Nc1ccc(C(=O)O)cc1`, the T/C reads like this: under setting [6], 100 % of control; under setting [7], 104 % of control; (dose: 400.0 mg/kg/injection, schedule: Q04DX003 (ip), vehicle: saline with Tween-80) 95 % of control.

For the origin of these results see PubChem BioAssay AID328 (DTP/NCI, 2004).
